This note sets out measurements from ChEMBL document CHEMBL1141026, “Synthesis, in vitro antitrypanosomal and antibacterial activity of phenoxy, phenylthio or benzyloxy substituted quinolones” (Bioorg Med Chem Lett, 2009).

For test [1], the system named is Trypanosoma cruzi. In words: Antitrypanosomal activity against trypomastigotes of Trypanosoma cruzi Tulahuen C2C4 containing lacZ gene in rat L6 cells after 4 days. The class given is functional, organism-based. The settings on record: L6, 96 h.
In test [2] the test system is Trypanosoma cruzi. In words: Antitrypanosomal activity against Trypanosoma cruzi DM28 epimastigotes at 200 ug/ml after 96 hrs. In kind it is functional.
In a further test the test system is Shigella boydii. In words: Antibacterial activity against Shigella boydii after 24 hrs by agar dilution method. In kind it is functional.
A further test concerns Shigella flexneri. The test can be described thus: Antibacterial activity against Shigella flexneri after 24 hrs by agar dilution method. The class given is functional.
The test system of the next test is Proteus mirabilis. In words: Antibacterial activity against Proteus mirabilis after 24 hrs by agar dilution method. In kind it is functional.
A further test deals with Proteus vulgaris. The test can be described thus: Antibacterial activity against Proteus vulgaris after 24 hrs by agar dilution method. The class given is functional.
Another test has as its system Pseudomonas aeruginosa. In words: Antibacterial activity against Pseudomonas aeruginosa after 24 hrs by agar dilution method. The class given is functional.
Another test has as its system Morganella morganii. The test can be described thus: Antibacterial activity against Morganella morganii after 24 hrs by agar dilution method. The class given is functional.
The test system of the next test is Klebsiella pneumoniae. The test can be described thus: Antibacterial activity against Klebsiella pneumoniae after 24 hrs by agar dilution method. In kind it is functional.
Test [3] concerns Salmonella enterica subsp. enterica. The test can be described thus: Antibacterial activity against Salmonella enteritidis after 24 hrs by agar dilution method. The class given is functional, Salmonella enterica subsp. enterica serovar Enteritidis.
A further test relates to Salmonella typhimurium. In words: Antibacterial activity against Salmonella Typhimurium after 24 hrs by agar dilution method. In kind it is functional, Salmonella enterica subsp. enterica serovar Typhimurium. Particulars: Salmonella enterica.
The next test deals with Citrobacter freundii. In words: Antibacterial activity against Citrobacter freundii after 24 hrs by agar dilution method. In kind it is functional.
Another test deals with Aeromonas hydrophila. In words: Antibacterial activity against Aeromonas hydrophila after 24 hrs by agar dilution method. The class given is functional.
In a further test the test system is Serratia marcescens. The test can be described thus: Antibacterial activity against Serratia marcescens after 24 hrs by agar dilution method. In kind it is functional.
Another test concerns Staphylococcus aureus. The test can be described thus: Antibacterial activity against Staphylococcus aureus after 24 hrs by agar dilution method. The class given is functional.
The test system of another test is Streptococcus pneumoniae. The test can be described thus: Antibacterial activity against Streptococcus pneumoniae after 24 hrs by agar dilution method. In kind it is functional.
The test system of the next test is Staphylococcus. The test can be described thus: Antibacterial activity against Staphylococcus albus after 24 hrs by agar dilution method. In kind it is functional.
Test [4] has as its system Staphylococcus epidermidis. The test can be described thus: Antibacterial activity against Staphylococcus epidermidis after 24 hrs by agar dilution method. In kind it is functional.
The next test has as its system Enterococcus faecalis. The test can be described thus: Antibacterial activity against Enterococcus faecalis after 24 hrs by agar dilution method. In kind it is functional.
The next test concerns Streptococcus. In words: Antibacterial activity against gamma-streptococcus after 24 hrs by agar dilution method. In kind it is functional.
The next test deals with Escherichia coli. In words: Antibacterial activity against Escherichia coli after 24 hrs by agar dilution method. The class given is functional.
Another test deals with Shigella sonnei. The test can be described thus: Antibacterial activity against Shigella sonnei after 24 hrs by agar dilution method. In kind it is functional.

Values after ≈ are worked out from the molar mass of the structure shown.

As for `CCn1cc(C(=O)OC)c(=O)c2cc(F)c(Oc3ccccc3)c(Oc3ccccc3)c21`, in the test with Trypanosoma cruzi [1], the IC50 is above 90 µg/mL.
Same read-out and setting: as for `CCn1cc(C(N)=O)c(=O)c2cc(F)c(Oc3ccccc3)c(Oc3ccccc3)c21`, the figure is 4 µg/mL (≈ 9.56 µM).
The molecule `CCOC(=O)c1cn(CC)c2c(Sc3ccccc3)c(Sc3ccccc3)c(F)cc2c1=O` displayed an IC50 in the test with Trypanosoma cruzi [1] of 6 µg/mL (≈ 12.5 µM).
`CCn1cc(C(=O)O)c(=O)c2cc(F)c(Oc3ccc(C)cc3)c(Oc3ccc(C)cc3)c21` returned an IC50 in the test on Trypanosoma cruzi [1] of 19.4 µg/mL (≈ 43.4 µM).
`CCn1cc(C(=O)OC)c(=O)c2cc(F)c(OCc3ccccc3)c(OCc3ccccc3)c21`: in the test with Trypanosoma cruzi [1], the IC50 is 3.8 µg/mL (≈ 8.23 µM).
Take `C=Cn1cc(C(=O)O)c(=O)c2cc(F)c(OCc3ccccc3)c(OCc3ccccc3)c21`: the IC50 in the test on Trypanosoma cruzi [1] was found to be 6.2 µg/mL (≈ 13.9 µM).
`CCOC(=O)c1cn(CC)c2c(OCc3ccccc3)c(OCc3ccccc3)c(F)cc2c1=O` had an IC50 in the test on Trypanosoma cruzi [1] of 1.7 µg/mL (≈ 3.58 µM).
The molecule `CCn1cc(C(=O)O)c(=O)c2cc(F)c(Sc3ccc(F)cc3)c(Sc3ccc(F)cc3)c21` displayed an IC50 in the test on Trypanosoma cruzi [1] of 6.2 µg/mL (≈ 12.7 µM).
In the test with Trypanosoma cruzi [2], `CCn1cc(C(=O)O)c(=O)c2ccc(C)nc21` [NALIDIXIC ACID] returned an Activity of 60%.
In the test on Trypanosoma cruzi [1], `CCn1cc(C(=O)O)c(=O)c2cc(Oc3ccc(C)cc3)c(Oc3ccc(C)cc3)c(Oc3ccc(C)cc3)c21` showed an IC50 above 90 µg/mL.
Molecule `CCn1cc(C(=O)O)c(=O)c2cc(F)c(Sc3ccc(C)cc3)c(Sc3ccc(C)cc3)c21` displayed an IC50 with Trypanosoma cruzi [1] of 52.7 µg/mL (≈ 110 µM).
As to `CCn1cc(C(=O)O)c(=O)c2cc(F)c(Sc3ccccc3)c(F)c21`, the MIC against Shigella boydii is 12.5 µg/mL (≈ 34.6 µM); with Shigella flexneri it was above 25 µg/mL; with Proteus mirabilis, above 25 µg/mL; in the test on Proteus vulgaris it was above 25 µg/mL; against Pseudomonas aeruginosa it was above 25 µg/mL; against Morganella morganii, above 25 µg/mL. Besides, the MIC in the test on Klebsiella pneumoniae was 12.5 µg/mL (≈ 34.6 µM); in test [3] it was above 25 µg/mL; against Salmonella typhimurium, above 25 µg/mL; in the test with Citrobacter freundii, 12.5 µg/mL (≈ 34.6 µM); in the test on Aeromonas hydrophila, above 25 µg/mL; in the test on Serratia marcescens, above 25 µg/mL. Moreover, the MIC against Staphylococcus aureus is 3.13 µg/mL (≈ 8.66 µM); in the test with Streptococcus pneumoniae, 0.78 µg/mL (≈ 2.16 µM); in the test with Staphylococcus, above 25 µg/mL; in test [4], 3.13 µg/mL (≈ 8.66 µM); with Enterococcus faecalis, above 25 µg/mL; against Streptococcus, above 25 µg/mL. For the same molecule, the values for the MIC against Escherichia coli and with Shigella sonnei were above 25 µg/mL and 12.5 µg/mL (≈ 34.6 µM), respectively. Also, the IC50 with Trypanosoma cruzi [1] worked out at 34.6 µg/mL (≈ 95.7 µM).
For the molecule `CCn1cc(C(=O)OC)c(=O)c2cc(F)c(Sc3ccccc3)c(Sc3ccccc3)c21`, in the test with Trypanosoma cruzi [1], the IC50 worked out at 2.4 µg/mL (≈ 5.15 µM).
`CCn1cc(C(N)=O)c(=O)c2cc(F)c(Sc3ccccc3)c(Sc3ccccc3)c21` came in with an IC50 in the test with Trypanosoma cruzi [1] above 90 µg/mL.
Same read-out and setting: as for `CCOC(=O)c1cn(CC)c2c(Oc3ccccc3)c(Oc3ccccc3)c(F)cc2c1=O`, the figure is 1.7 µg/mL (≈ 3.8 µM); as for `CCn1cc(C(=O)O)c(=O)c2cc(F)c(Oc3ccc(O)cc3)c(Oc3ccc(O)cc3)c21`, 57.1 µg/mL (≈ 126 µM).
